From ChEMBL document CHEMBL1201862, “PubChem BioAssay data set” (2004)
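Briefly, cells in 96-well plates were exposed to five compound concentrations for 48 h, and endpoints were estimated by linear interpolation. GI50: concentration for 50% inhibition of growth.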 Activity calls are given as the source filed them. No stated cut-off is given here; in the data, active = GI50 up to about 1.1 µM and inactive = higher.

Assays:
Experiment in all cases: NCI anticancer screen, dose series, 48 h
MOLT-4 = test system: MOLT-4
SR = test system: SR
RPMI-8226 = test system: RPMI-8226
OVCAR-4 = test system: OVCAR-4
NCI-H522 = test system: NCI-H522
KM12 = test system: KM12
SK-MEL-5 = test system: SK-MEL-5
LOX IMVI = test system: LOX IMVI
T47D = test system: T47D
SNB-75 = test system: SNB-75
786-0 = test system: 786-0
UO-31 = test system: UO-31
OVCAR-3 = test system: OVCAR-3
UACC-257 = test system: UACC-257
M14 = test system: M14
PC-3 = test system: PC-3
SF-539 = test system: SF-539
NCI-H226 = test system: NCI-H226
HCC 2998 = test system: HCC 2998
HL-60 = test system: HL-60

| SMILES | GI50 (MOLT-4) | GI50 (SR) | GI50 (RPMI-8226) | GI50 (OVCAR-4) | GI50 (NCI-H522) | GI50 (KM12) | GI50 (SK-MEL-5) | GI50 (LOX IMVI) | GI50 (T47D) | GI50 (SNB-75) | GI50 (786-0) | GI50 (UO-31) | GI50 (OVCAR-3) | GI50 (UACC-257) | GI50 (M14) | GI50 (PC-3) | GI50 (SF-539) | GI50 (NCI-H226) | GI50 (HCC 2998) | GI50 (HL-60) |
| --- | --- | --- | --- | --- | --- | --- | --- | --- | --- | --- | --- | --- | --- | --- | --- | --- | --- | --- | --- | --- |
| Oc1c(Cl)cc(CN(Cc2cc(Cl)c(O)c(Cl)c2)C2CCCCC2)cc1Cl | > 100 µM (inactive) | > 100 µM (inactive) | > 100 µM (inactive) | > 100 µM (inactive) | > 100 µM (inactive) | > 100 µM (inactive) | > 100 µM (inactive) | > 100 µM (inactive) | > 100 µM (inactive) | > 100 µM (inactive) | > 100 µM (inactive) | > 100 µM (inactive) | > 100 µM (inactive) | > 100 µM (inactive) | > 100 µM (inactive) | > 100 µM (inactive) | > 100 µM (inactive) |  |  |  |
| COc1ccc(C(=O)/C=C/c2ccc(OCC(=N)N)cc2)cc1 | 3.58 µM (inactive) | 5 µM (inactive) |  | 14.7 µM (inactive) | > 10 µM (inactive) | 12.6 µM (inactive) | 17.3 µM (inactive) |  | 10.7 µM (inactive) | 5.73 µM (inactive) | 16.3 µM (inactive) | 19.8 µM (inactive) | 14.4 µM (inactive) | 18.5 µM (inactive) | 17 µM (inactive) | 14.7 µM (inactive) | 15.8 µM (inactive) | 18.8 µM (inactive) | 16.6 µM (inactive) |  |
| N#Cc1[nH]c(=O)n(-c2cccc3ccccc23)c1N | > 10 µM (inactive) | > 10 µM (inactive) | 0.001 µM (active) | > 10 µM (inactive) | > 10 µM (inactive) | > 10 µM (inactive) | > 10 µM (inactive) | > 10 µM (inactive) | > 10 µM (inactive) |  | > 10 µM (inactive) |  | > 10 µM (inactive) | > 10 µM (inactive) | > 10 µM (inactive) | > 10 µM (inactive) | > 10 µM (inactive) |  | > 10 µM (inactive) | > 10 µM (inactive) |
| CC1(C)C2CC1C(/C=N\OCC(=O)O)=CC2=O (centres undefined) | > 100 µM (inactive) | > 100 µM (inactive) | > 100 µM (inactive) | > 100 µM (inactive) |  | > 100 µM (inactive) | > 100 µM (inactive) | > 100 µM (inactive) | > 100 µM (inactive) |  | > 100 µM (inactive) | > 100 µM (inactive) | > 100 µM (inactive) | > 100 µM (inactive) | > 100 µM (inactive) | > 100 µM (inactive) | > 100 µM (inactive) | > 100 µM (inactive) | > 100 µM (inactive) | > 100 µM (inactive) |
| O=c1[nH]c(N/N=C\C(O)C(O)C(O)C(O)CO)nc2ccccc12 (centres undefined) | > 100 µM (inactive) | > 100 µM (inactive) | > 100 µM (inactive) |  |  | > 100 µM (inactive) | > 100 µM (inactive) | > 100 µM (inactive) | > 100 µM (inactive) | > 100 µM (inactive) | > 100 µM (inactive) | > 100 µM (inactive) | > 100 µM (inactive) | > 100 µM (inactive) | > 100 µM (inactive) | > 100 µM (inactive) | > 100 µM (inactive) | > 100 µM (inactive) |  | > 100 µM (inactive) |
| CC(C)(O)/C=C\P(=O)(O)O |  | > 100 µM (inactive) |  | > 100 µM (inactive) | > 100 µM (inactive) | > 100 µM (inactive) | > 100 µM (inactive) | > 100 µM (inactive) | 7.1 µM (inactive) | > 100 µM (inactive) | > 100 µM (inactive) |  | > 100 µM (inactive) | > 100 µM (inactive) | > 100 µM (inactive) | > 100 µM (inactive) | > 100 µM (inactive) | > 100 µM (inactive) | > 100 µM (inactive) |  |
| CCn1c(-c2ccc(OC(C)=O)cc2)c(C)c2cc(OC(C)=O)ccc21 [ZINDOXIFENE] | 8.49 µM (inactive) | 5.27 µM (inactive) | 12.5 µM (inactive) | 18.1 µM (inactive) | 17.4 µM (inactive) | 12.9 µM (inactive) | 13.8 µM (inactive) | 11.9 µM (inactive) | 19.4 µM (inactive) | 16.5 µM (inactive) | 21.9 µM (inactive) | 20.7 µM (inactive) | 16.7 µM (inactive) | 27 µM (inactive) | 18.1 µM (inactive) | 13.7 µM (inactive) | 15.8 µM (inactive) | 30.1 µM (inactive) |  | 11 µM (inactive) |
| COc1ccc(-n2c3c(c4c(CN(C)C)c(O)ccc42)C(=O)c2ccccc2C3=O)cc1 | 3 µM (inactive) | 2.45 µM (inactive) | 2.17 µM (inactive) | 2.37 µM (inactive) | 12.3 µM (inactive) | 3.2 µM (inactive) | 1.69 µM (inactive) | 2.49 µM (inactive) | 2.67 µM (inactive) |  | 1.89 µM (inactive) | 1.96 µM (inactive) | 13.5 µM (inactive) | 18.8 µM (inactive) | 3.54 µM (inactive) | 13 µM (inactive) | 2.04 µM (inactive) |  | 2.77 µM (inactive) | 3.13 µM (inactive) |
| c1ccc2c(c1)c1c(c3ccccc32)CN2CCCC2C1 (centres undefined) | 4.61 µM (inactive) | 4.89 µM (inactive) | 4.24 µM (inactive) | 3.3 µM (inactive) | 2.57 µM (inactive) | 4.2 µM (inactive) | 3.51 µM (inactive) | 3.35 µM (inactive) | 1.5 µM (inactive) | 3.01 µM (inactive) | 3.94 µM (inactive) | 2.77 µM (inactive) | 3.26 µM (inactive) | 4.05 µM (inactive) | 3.67 µM (inactive) | 3 µM (inactive) | 2.9 µM (inactive) |  | 4.22 µM (inactive) | 1.41 µM (inactive) |
| CCOP(=O)(OCC)C(C)(C)OC(=O)NC#N | > 100 µM (inactive) | > 100 µM (inactive) | > 100 µM (inactive) | > 100 µM (inactive) |  | > 100 µM (inactive) | > 100 µM (inactive) | > 100 µM (inactive) | > 100 µM (inactive) | > 100 µM (inactive) | > 100 µM (inactive) | > 100 µM (inactive) | > 100 µM (inactive) | > 100 µM (inactive) | > 100 µM (inactive) | > 100 µM (inactive) | > 100 µM (inactive) | > 100 µM (inactive) | > 100 µM (inactive) | > 100 µM (inactive) |
| N/C(=N\c1ccc(Cl)cc1)NS(=O)(=O)c1cccc2nsnc12 | 26.9 µM (inactive) | 33 µM (inactive) | 33.8 µM (inactive) | 15.2 µM (inactive) | 5.92 µM (inactive) | 34.3 µM (inactive) | 16.1 µM (inactive) | 25.1 µM (inactive) | 39.4 µM (inactive) | > 100 µM (inactive) | 24.7 µM (inactive) | 28.4 µM (inactive) | 44.3 µM (inactive) | 13.9 µM (inactive) | 27.9 µM (inactive) | 17.4 µM (inactive) | 37.3 µM (inactive) | 68.7 µM (inactive) |  | 17.9 µM (inactive) |
| C#CCOC(=O)c1ccccc1O | > 100 µM (inactive) | > 100 µM (inactive) | > 100 µM (inactive) | > 100 µM (inactive) | > 100 µM (inactive) | > 100 µM (inactive) | > 100 µM (inactive) | > 100 µM (inactive) | > 100 µM (inactive) | > 100 µM (inactive) | > 100 µM (inactive) | > 100 µM (inactive) |  | > 100 µM (inactive) | > 100 µM (inactive) | > 100 µM (inactive) | > 100 µM (inactive) | > 100 µM (inactive) |  | > 100 µM (inactive) |
| CCOC(=O)CC(=O)C(=O)NN=C1NCCCN1 | > 100 µM (inactive) | > 100 µM (inactive) | > 100 µM (inactive) | > 100 µM (inactive) |  | > 100 µM (inactive) | > 100 µM (inactive) | > 100 µM (inactive) | > 100 µM (inactive) | > 100 µM (inactive) | > 100 µM (inactive) | > 100 µM (inactive) | > 100 µM (inactive) |  | > 100 µM (inactive) | > 100 µM (inactive) | > 100 µM (inactive) | > 100 µM (inactive) | > 100 µM (inactive) | > 100 µM (inactive) |
| COC(=O)C1(NC(=O)C(CC(=O)OCc2ccccc2)NC(=O)OCc2ccccc2)CCCCCC1 (centres undefined) | 21.4 µM (inactive) | 18.4 µM (inactive) | 3.93 µM (inactive) | 14.1 µM (inactive) | 69.3 µM (inactive) | 50.1 µM (inactive) | 15.4 µM (inactive) | 24.8 µM (inactive) | 30.8 µM (inactive) | 35.1 µM (inactive) | 38.5 µM (inactive) | 35.1 µM (inactive) | 26.1 µM (inactive) |  | > 100 µM (inactive) | 28.6 µM (inactive) | 23.1 µM (inactive) | 29.4 µM (inactive) |  | 17.7 µM (inactive) |
| CCCCCCc1cc2cc(C(=O)Nc3ccccc3)c(=N)oc2cc1O | 2.16 µM (inactive) |  | 4.08 µM (inactive) | 4.13 µM (inactive) | 1.94 µM (inactive) | 2.51 µM (inactive) | 2.56 µM (inactive) | 3.23 µM (inactive) | 2.33 µM (inactive) | > 23 µM (inactive) | 3.21 µM (inactive) | 2.82 µM (inactive) | 2.09 µM (inactive) | 4.63 µM (inactive) | 3.6 µM (inactive) | 2.86 µM (inactive) | 4.49 µM (inactive) | > 25.6 µM (inactive) | 3.46 µM (inactive) | 4.08 µM (inactive) |
